Laboratory results published in US20030087237A1, “Low-temperature cycle extension of DNA with high polymerization specificity” (priority 2001, published 2003).
“Also recorded” adds a separate entry of the source. Read-outs that look alike come from different tables or passages of the source.

Tests used:
Bst-II DNA polymerase [1] = target: T1, Bst-II DNA polymerase (Geobacillus stearothermophilus, UniProt P52026, A297E/A304V/A338V/A377V/A406D/A433V/A505S/D300E/D309E/D325E/D402N/D540E/D696E/D751E/E459Q/E464D/E476K/E631P/E632L/E667D/F710Y/G298E/G324E/G362A/G483A/G678D/H329D/H417K/H573N/H596R/H691Q/K356Q/K494N/L346M/L461F/L630T/N487E/P355S/P441Q/P480A/Q479H/Q512R/R341H/R467N/R472Q/R516Q/R676Q/R816K/R819Q/R846E/S306V/S373A/S812A/T369S/T436S/T508A/T536V/V307I/V323M/V391A/V410I/V437L/V514I/V537I/V598D/V619A/V692L/V813A); format: biochemical, Bacillus stearothermophilus; conditions: for effect on 5′-3′ polymerization activity of the polymerase: 65° C.
T1 construct: made in house
Description: The remaining activity of Bst-II DNA polymerase (produced according to U.S. Pat. No. 6,165,765) in the presence of different concentrations of Glycerol was determined as follows:
(a) In a series of numbered 0.5 ml microcentrifuge tubes were added the following:
The mixtures above were firstly evaporated by Speed-Vacuum, then varying final concentrations of glycerol in each reaction mixture were achieved by adding an appropriate amount of a glycerol stock solution to the above microcentrifuge tubes as indicated below.
(b) All these tubes were incubated at 65° C. for 30 minutes. Then each of the reaction mixtures was pipetted onto a DE-81 filter. After all of the fluid has evaporated, the amount of radioactivity on each filter was measured with scintillation and recorded as X1. Thereafter, the filters were washed three times with 0.3 M Na2HPO4 solution at room temperature, 10 minutes each times, dried at room temperature and then the amount of radioactivity on each filter was measured again and recorded as X2. Incorporation ratio=X2/X1. [formula]

Bst-II DNA polymerase [2] = target: T1, Bst-II DNA polymerase; assay: Low-temperature cycle primer extension with Bst-II at different glycerol concentrations (agarose gel); format: biochemical, Bacillus stearothermophilus
Description: Bst-II DNA polymerase was used for the study. […]
(§1) The reaction products were run on a 1% agarose gel for electrophoresis and stained by ethidium bromide.
Four different sets of templates and primers were selected representing varying lengths of the DNA segments to be amplified:
The low temperature cycle extension was carried out as follows:
(a) To a 0.2 ml microcentrifuge tube were added.
(b) The mixture above was firstly evaporated by Speed-Vacuum, then the following were added to each microcentrifuge tube containing the evaporated reagents with different sets of template and primers to achieve a final concentration of 35% glycerol and 15% glycerol in the reaction mixture, respectively.
(c) All the microcentrifuge tubes with the reaction mixture were subjected to low temperature cycling as follows:
The reaction products were run on a 1% agarose gel for electrophoresis and stained by ethidium bromide. The reaction products from the mixture containing 35% glycerol were loaded in lane 1, and the reaction products from the mixture containing 15% glycerol were loaded in lane 2.

rice genome BAC B414f7 = assay: Low-temperature cycle extension of 17 mer and 30 mer primers with different DNA polymerases (agarose gel); format: biochemical; conditions: Bst system, 15% glycerol, 70° C./37° C./50° C., 35 cycles
Description: The polymerases used were Bst-I (wild type produced according to U.S. Pat. No. 5,834,254), Bst-II, and Bca (TaKaRa Co.). The Klenow fragment (Sigma Chemical Co.) was used as a thermolabile DNA polymerase for comparison (Iakobashvili and Lapidot).
The template used was rice genome BAC B414f7.
The two pairs of primers used were: […]
The following reaction system (referred to hereafter as the Bst system) was used.
(a) In a 0.2 ml microcentrifuge tube were added:
(b) The microcentrifuge tubes were subjected to the following temperature cycling.
as §1
In addition, the method of using a reaction mixture containing 4.5 M proline and 17% glycerol in Tris-HCl buffer as recommended by Iakobashvili and Lapidot was also adopted for the reactions with Klenow fragment as the DNA polymerase (hereafter referred to as the Iakobashvili and Lapidot system). The reaction products were also run parallel to those obtained with the Bst system, and illustrated as follows in FIG. 4.

[3] = higher concentrations (greater than about 35%)
[4] = low concentration, not exceeding / up to about 20% (v/v)

T1 sequence (P52026 other isoform, or with tags, fused parts or gaps with the stated changes): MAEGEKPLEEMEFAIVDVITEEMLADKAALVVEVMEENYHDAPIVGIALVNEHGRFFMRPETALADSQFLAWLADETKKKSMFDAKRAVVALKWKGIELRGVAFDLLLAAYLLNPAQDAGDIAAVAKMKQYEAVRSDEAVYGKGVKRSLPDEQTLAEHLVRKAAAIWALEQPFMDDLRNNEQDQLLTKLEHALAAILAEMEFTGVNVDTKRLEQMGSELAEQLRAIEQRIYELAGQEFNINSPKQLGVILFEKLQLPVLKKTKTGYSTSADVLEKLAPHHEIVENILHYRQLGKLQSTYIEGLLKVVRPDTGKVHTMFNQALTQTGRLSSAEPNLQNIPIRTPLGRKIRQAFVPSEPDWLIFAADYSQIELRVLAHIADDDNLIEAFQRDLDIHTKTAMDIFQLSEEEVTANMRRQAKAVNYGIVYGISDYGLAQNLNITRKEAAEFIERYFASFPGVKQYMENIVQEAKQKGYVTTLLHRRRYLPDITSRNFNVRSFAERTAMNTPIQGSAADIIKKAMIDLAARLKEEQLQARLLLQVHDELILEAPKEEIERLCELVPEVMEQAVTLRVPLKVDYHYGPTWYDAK

Row | Molecule | effect on 5′-3′ polymerization activity of the polymerase (Bst-II DNA polymerase [1]; [3]) | effect on 5′-3′ polymerization activity of the polymerase (Bst-II DNA polymerase [1]; [4]) | loss of original polymerization activity (Bst-II DNA polymerase [1]; glycerol 40% (v/v)) | amplification products on gel (Bst-II DNA polymerase [2]; 15% glycerol, target products 250 bp to 2 Kb) | amplification products on gel (Bst-II DNA polymerase [2]; 35% glycerol, target product 1 Kb and 2 Kb) | amplification products on gel (Bst-II DNA polymerase [2]; 35% glycerol, target product 250 bp or 400 bp) | amplification products on gel (Bst-II DNA polymerase [2]; 40% glycerol, template pBluescript(+), low or high template concentration, 70° C./45° C., 35 cycles) | amplification product from 17 mer and 30 mer primer extension (rice genome BAC B414f7)
1 | OCCO [ethylene glycol] | detrimental inhibitory effect | increase the sequence-specific DNA polymerization activity | – | – | – | – | – | –
2 | OCC(O)CO [glycerol] | detrimental inhibitory effect; also recorded: invariably suppressed this enzymatic activity | increased the enzymatic activity; also recorded: increase the sequence-specific DNA polymerization activity; also recorded: increased the 5′-3′ polymerization activity | ⅔ | specific amplification products | both specific and non-specific amplification products | no amplification products produced at all | non-specific amplification products of varying sizes | –
3 | Bst-I: wild type, natural form of Bacillus stearothermophilus DNA polymerase (protein, UniProt P52026 1-876, looked up) DNA polymerase I: MKNKLVLIDGNSVAYRAFFALPLLHNDKGIHTNAVYGFTMMLNKILAEEQPTHILVAFDAGKTTFRHETFQDYKGGRQQTPPELSEQFPLLRELLKAYRIPAYELDHYEADDIIGTMAARAEREGFAVKVISGDRDLTQLASPQVTVEITKKGITDIESYTPETVVEKYGLTPEQIVDLKGLMGDKSDNIPGVPGIGEKTAVKLLKQFGTVENVLASIDEIKGEKLKENLRQYRDLALLSKQLAAICRDAPVELTLDDIVYKGEDREKVVALFQELGFQSFLDKMAVQTDEGEKPLAGMDFAIADSVTDEMLADKAALVVEVVGDNYHHAPIVGIALANERGRFFLRPETALADPKFLAWLGDETKKKTMFDSKRAAVALKWKGIELRGVVFDLLLAAYLLDPAQAAGDVAAVAKMHQYEAVRSDEAVYGKGAKRTVPDEPTLAEHLVRKAAAIWALEEPLMDELRRNEQDRLLTELEQPLAGILANMEFTGVKVDTKRLEQMGAELTEQLQAVERRIYELAGQEFNINSPKQLGTVLFDKLQLPVLKKTKTGYSTSADVLEKLAPHHEIVEHILHYRQLGKLQSTYIEGLLKVVHPVTGKVHTMFNQALTQTGRLSSVEPNLQNIPIRLEEGRKIRQAFVPSEPDWLIFAADYSQIELRVLAHIAEDDNLIEAFRRGLDIHTKTAMDIFHVSEEDVTANMRRQAKAVNFGIVYGISDYGLAQNLNITRKEAAEFIERYFASFPGVKQYMDNIVQEAKQKGYVTTLLHRRRYLPDITSRNFNVRSFAERTAMNTPIQGSAADIIKKAMIDLSVRLREERLQARLLLQVHDELILEAPKEEIERLCRLVPEVMEQAVTLRVPLKVDYHYGPTWYDAK | – | – | – | – | – | – | – | generated specific amplification products
